Like-named read-outs stand apart in the source and are kept apart here.
Legend:
[1] = Microsomal assay: stability in human liver microsomes; format: in vitro ADME; details: for half-life at 1 μM: liver microsomes
Method: Microsomal Assay. Human liver microsomes (20 mg/mL, pool of 50 individuals) were obtained from Xenotech LLC (Lenexa, Kans.). The incubation mixtures are prepared as follows. Stock solutions (10 mM) solutions of test Compounds 103, 106, 122 and of atazanavir were prepared in DMSO. The 10 mM stock solutions were diluted to 1 mM in acetonitrile (ACN). […] The microsome-test compound mixtures were added to wells of a 2 mL 96-well deep well polypropylene plate in triplicate. The plate was warmed to 37° C. before initiating the reactions by addition of prewarmed NADPH in 0.1 M potassium phosphate buffer, pH 7.4, containing 3 mM MgCl2. The final reaction mixture composition contained: • Liver Microsomes 0.5 mg/mL • NADPH 2 mM • Potassium Phosphate, pH 7.4 100 mM • Magnesium Chloride 3 mM • Test Compound 1.0 μM. The reaction mixtures were incubated at 37° C. and 50 μL aliquots were removed at 0, 3, 7, 12, 20, and 30 minutes and added to shallow-well 96-well plates which contained 50 μL of ice-cold ACN with internal standard to stop the reactions. The plates were stored at −20° C. for 30 minutes, after which 100 μL of water was added to the wells of the plate before centrifugation to pellet precipitated proteins. Supernatants were transferred to another 96-well plate and analyzed for amounts of parent remaining by LC-MS/MS using an Applied Biosystems API 4000 mass spectrometer. […] Data analysis was performed using Microsoft Excel Software. […] The results are shown in FIGS. 2 and 3 and in Table 3, below: […]

[2] = Rat pharmacokinetics, intravenous and oral co-dosing of Compound 122 and atazanavir; format: in vivo; details: male, Sprague-Dawley, plasma, rats, 1 mg/kg of each
Method: Rat Pharmacokinetics. […] Then the combo dose was prepared by mixing both by 1:1 to yield a final concentrations at 1 mg/mL for each compound (pH=5-6) for intravenous and oral administration. Male Sprague-Dawley rats (body weight: 170 g to 235 g) were used in this study. […] Blood samples (300 μL) were collected via the retro-orbital vein at pre-dose and 0.083, 0.25, 0.5, 1, 2, 4, 6, 8, 10, 12 and 24 hours post-dose. Blood samples were placed into heparinized eppendorf tubes (evaporated) and then centrifuged at 8000 rpm for 6 minutes. 100 μL aliquots of plasma were transferred to clean Eppendorf tubes and stored with the dose formulation at -20° C. until bioanalysis. For bioanalysis, plasma was thawed and added to it was 20 μL methanol and 500 μL of a 50 ng/ml internal standard solution (quetiapine in methanol). The sample was vortexed, centrifuged at 15,000 rpm for 5 minutes and the supernatant transferred to glass autosampler vials. Analyses of plasma samples were performed using a high performance liquid chromatography/mass spectrometry (HPLC/MS/MS) method. The LC system comprised an Agilent (Agilent Technologies Inc, USA) liquid chromatograph equipped with an isocratic pump (1100 series), an autosampler (1100 series) and a […]). Mass spectrometric analysis was performed using an API3000 (triple-quadrupole) instrument from AB Inc (Canada) with an ESI interface. The data acquisition and control system were created using Analyst 1.4 software from ABI Inc. Following intravenous co-administration of Compound 122 and atazanavir, atazanavir disappeared more rapidly from the blood.

[3] = Chimp pharmacokinetics Run A, IV or PO co-dosing of atazanavir and Compounds 114, 120, 122; format: in vivo, chimpanzee; details: for concentration at 24 h: concentration detected intact in urine
Method: Chimp Pharmacokineties. Run A: A 4 mg/mL solution of atazanavir and each of Compounds 114, 120 and 122 were prepared in 10% DMI (dimethyl isosorbide), 15% EtOH, 35% PG in D5W. Specifically, for each compound, 240 mgs of compound was dissolved in a solution composed of 6 mL of DMI, 9 mL of EtOH and 21 mL PG. Once the compound was fully dissolved, 24 mL of D5W was added and the solution mixed.
Fifty-five mL of each drug solution is then combined and the mixture was sterile filtered using a 0.2 μm filter. This produced 220 mL of a 1:1:1:1 mixture atazanavir:Compound 114:Compound 120:Compound 122. The final concentration of each drug in the solution was 1 mg/mL. Each animal received 50 mL of this solution through either IV or PO routes.
Four chimps (two male and two female) were used in this study and were fasted overnight prior to administration of the compound solution. Animals were sedated with ketamine and/or telazol prior to dosing. Intravenous dosing was achieved by IV infusion over 30 minutes.
Approximately 4.5 mL of blood was collected into vacutainer tubes with sodium heparin as an anticoagulant at 0 (preinfusion), 15 min., 29.5 min (immediately before the end of the infusion), and then at 6, 15, 30, and 45 minutes, and 1, 2, 4, 6, 8, 10, 12, 24 hours after the infusion is stopped. A similar procedure was used to collect blood after oral dosing with samples taken at 0 (predose), 15, and 30 minutes, and at 1, 1.5, 2, 4, 6, 8, 10, 12, 24 hours postdose. Following sample collection, the vacutainer tubes were rocked by hand several times to insure adequate mixing. Blood samples were placed immediately on wet ice and centrifuged within 1 hour from time of collection. Following centrifugation, the resulting plasma was stored frozen at −70° C. until analysis. The results are summarized in FIGS. 4 and 5 and tables 6 and 7.

[4] = human, pH 7.4, human liver microsomes 0.5 mg/mL, 1.0 μM test compound, first run (Table 2), read-out: T1/2 ± SD
[5] = human, pH 7.4, human liver microsomes, repeated assay (Table 3), read-out: t1/2 (min) Avg ± SD (n = 3)

| half-life as compared to atazanavir ([1]; human liver microsomes, first run) | increase in half-life as compared to atazanavir ([1]; human, 1 μM, pH 7.4) [%] | half-life at 1 μM [1, 4] [min] | half-life at 1 μM [1, 5] [min] | AUC ([2]; intravenous co-dosing) [ng·h/mL] | half-life ([2]; intravenous co-dosing) [min] | AUC ([2]; oral co-dosing) [ng·h/mL] | Cmax ([2]; oral co-dosing) [ng/mL] | half-life ([2]; oral co-dosing) [min] | Ratio of urine concentration, compound:Atazanavir ([3]; chimp A242E, PO, 24 hours, Run A) | Ratio of urine concentration, compound:Atazanavir ([3]; chimp A336C, IV, 24 hours, Run A) | Ratio of urine concentration, compound:Atazanavir ([3]; chimpanzee, in vivo, iv, 24 h) | concentration detected intact in urine ([3]; chimpanzee, in vivo, iv, 24 h) [ng/mL] | concentration at 24 h ([3]; chimpanzee, in vivo, iv) [ng/mL] | Ratio of urine concentration, compound:Atazanavir ([3]; chimpanzee, in vivo, po, 24 h) | concentration detected intact in urine ([3]; chimpanzee, in vivo, po, 24 h) [ng/mL] | concentration at 24 h ([3]; chimpanzee, in vivo, po) [ng/mL] | Structure (SMILES) |
| --- | --- | --- | --- | --- | --- | --- | --- | --- | --- | --- | --- | --- | --- | --- | --- | --- | --- |
| increased half-life | ~67 | 35.4 ± 1.68 | 28.3 ± 0.3 | 503 ± 25.1 | 15 ± 1.2 | 156 ± 70.6 | 183 ± 113 | 27.6 ± 9.6 | 2.25 | 1.82 | 1.57 | 3250 | 3130 | 2.29 | 1180 | 1280 | [2H]C([2H])([2H])OC(=O)N[C@H](C(=O)N[C@@H](Cc1ccccc1)[C@@H](O)CN(Cc1ccc(-c2ccccn2)cc1)NC(=O)[C@@H](NC(=O)OC([2H])([2H])[2H])C(C([2H])([2H])[2H])(C([2H])([2H])[2H])C([2H])([2H])[2H])C(C([2H])([2H])[2H])(C([2H])([2H])[2H])C([2H])([2H])[2H] [Compound 122, 1,14-Di(methyl-d3)(3S,8S,9S,12S)-3,12-bis[(1,1-dimethylethyl)-d9]-8-hydroxy-4,11-dioxo-9-(phenylmethyl)-6-[[4-(2-pyridinyl)phenyl]methyl]-2,5,6,10,13-pentaazatetradecanedioate] |
|  |  | 18.6 ± 2.99 | 18.8 ± 0.6 | 475 ± 15.9 | 13.8 ± 0.6 | 86 ± 51.2 | 109 ± 67.2 | 19.2 ± 3.6 |  |  |  | 1790 | 2000 |  | 516 | 569 | COC(=O)N[C@H](C(=O)N[C@@H](Cc1ccccc1)[C@@H](O)CN(Cc1ccc(-c2ccccn2)cc1)NC(=O)[C@@H](NC(=O)OC)C(C)(C)C)C(C)(C)C [Atazanavir, atazanavir, reference compound] |
